The values below come from patent US4267187A, “Aminopropanol derivatives of 2-(0-hydroxyphenyl)-pyrrole” (BASF Aktiengesellschaft, priority 1978, dated 1981).

Data set [1] has as its system isoproterenol-induced tachycardia. Kind of data set: β1-sympatholytic action: inhibition of isoproterenol-induced tachycardia in pithed rats. It is filed as in vivo, pithed rats (Sprague-Dawley, Rattus norvegicus). The note with it: for β1-sympatholytic action, R.A. (relative activity): Propranolol = 1.00, from ED 50%, intravenous; for β1-sympatholytic activity, times greater than that of propranolol: versus propranolol. As to the method:
The β-sympatholytic action was tested on rats, in comparison with the known β-sympatholytic agent propanolol (1-(isopropylamino)-1-naphthyloxy-2-propanol.HCl). The following methods were used for this purpose:
1. β1 -sympatholytic action
^1 Inhibition of isoproterenolinduced tachycardia in pithed rats.
Intravenous administration
^2 Dose which inhibits the isoproterenolinduced tachycardia by 50%

In another data set the test system is NMRI mice. In words: Acute toxicity in mice, intraperitoneal. The note with it: deaths within 24 hours, Probit analysis.
For data set [2] the following is noted: for Therapeutic range, relative: in vivo; for Therapeutic range (LD 50/ED 50%), times greater than that of propranolol: versus propranolol.

Structures can show the parent of a compound that is named as a salt.

Description for NMRI mice: The acute toxicity was determined on groups of 10 female NMRI mice, weight 19-27 g, with intraperitoneal administration.
Intraperitoneal administration

Regarding `CC(C)NCC(O)COc1cccc2ccccc12` (racemic) [Propranolol, 1-(isopropylamino)-1-naphthyloxy-2-propanol.HCl, reference compound], in data set [1] (pithed rats), the “β1-sympatholytic action, R.A. (relative activity)” value is recorded as 1.00. The ED50 in data set [1] (Rattus norvegicus, iv, 5 min, read-out: β1-sympatholytic action, ED 50% (dose which inhibits the isoproterenol-induced tachycardia by 50%)) was found to be 0.0127 mg/kg.
In the case of `CC(C)NCC(O)c1ccc(O)c(O)c1` (stereo not drawn) [Isoproterenol, reference compound], the “increase in pulse rate, on average” value in data set [1] (isoproterenol 0.1 μg/kg intravenously, pithed rats) worked out at 45%.
Turning to `CC(C)(C)NCC(O)COc1ccccc1-c1ccc[nH]1` (stereo not drawn) [Example 1, 2-[2-(3-tert.-butylamino-2-hydroxypropoxy)-phenyl]-pyrrole fumarate], in the data set with NMRI mice, the “Acute toxicity LD 50” value is listed as 165. Also, in data set [1] (pithed rats), the “β1-sympatholytic action, R.A. (relative activity)” value is reported as 5.59. Moreover, in data set [1], the “β1-sympatholytic activity, times greater than that of propranolol” value is given as 5.6 times. For the same compound, in data set [2], the “Therapeutic range, relative” value was found to be 6.91 and the “Therapeutic range (LD 50/ED 50%), times greater than that of propranolol” value is 7 times.
Regarding `CC(C)NCC(O)COc1ccccc1-c1ccc[nH]1` (stereo not drawn) [Example 2, 2-[2-(3-isopropylamino-2-hydroxypropoxy)-phenyl]-pyrrole fumarate hemihydrate], in data set [1] (pithed rats), the “β1-sympatholytic action, R.A. (relative activity)” value worked out at 3.18. For the same compound, the “β1-sympatholytic activity, times greater than that of propranolol” value in data set [1] was 3.2 times. In addition, in data set [2], the “Therapeutic range, relative” value was found to be 4.07 and the “Therapeutic range (LD 50/ED 50%), times greater than that of propranolol” value is 4 times.
